Measured values reported in US20180099931A1 (AbbVie S.à.r.l., priority 2016, published 2018).
Read-outs that look alike come from different tables or passages of the source.

Biological target: T1, F508delCFTR (Homo sapiens, UniProt P13569, DEL508-508)
T1 construct: expressed in transfected cells; host or cells: CFBE41o- human lung-derived epithelial cells (CFBE4lo-F508delCFTR-HRP), doxycycline-inducible
Assay: Cell Surface Expression-Horse Radish Peroxidase (CSE-HRP) Assay;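 for Maximum % activity (with co-corrector): co-corrector and positive control are both the same reference corrector at 2 µM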;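 for Maximum % activity (without co-corrector): percent of the 2 µM on-plate positive control corrector response above DMSO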
Type: cell-based
Settings: for Maximum % activity (with co-corrector) / Emax: maximum at any tested concentration, normalized to on-plate positive control; for Emax: read-out: Maximum % activity (without co-corrector)

[1] = CSE-HRP, test compound without co-corrector, read-out: EC50 (without co-corrector)
[2] = CSE-HRP, with co-corrector (2 μM of 3-[(2R,4R)-4-({[1-(2,2-difluoro-1,3-benzodioxol-5-yl)cyclopropyl]carbonyl}amino)-7-methoxy-3,4-dihydro-2H-chromen-2-yl]benzoic acid), read-out: EC50 (with co-corrector)
[3] = CSE-HRP, with co-corrector (2 μM)
[4] = test compound without co-corrector
[5] = test compound without co-corrector, read-out: EC50 (without co-corrector)
[6] = with co-corrector (2 μM of 3-[(2R,4R)-4-({[1-(2,2-difluoro-1,3-benzodioxol-5-yl)cyclopropyl]carbonyl}amino)-7-methoxy-3,4-dihydro-2H-chromen-2-yl]benzoic acid)
[7] = with co-corrector (2 μM of 3-[(2R,4R)-4-({[1-(2,2-difluoro-1,3-benzodioxol-5-yl)cyclopropyl]carbonyl}amino)-7-methoxy-3,4-dihydro-2H-chromen-2-yl]benzoic acid), read-out: EC50 (with co-corrector)

T1 sequence (P13569 with tags, fused parts or gaps DEL508-508): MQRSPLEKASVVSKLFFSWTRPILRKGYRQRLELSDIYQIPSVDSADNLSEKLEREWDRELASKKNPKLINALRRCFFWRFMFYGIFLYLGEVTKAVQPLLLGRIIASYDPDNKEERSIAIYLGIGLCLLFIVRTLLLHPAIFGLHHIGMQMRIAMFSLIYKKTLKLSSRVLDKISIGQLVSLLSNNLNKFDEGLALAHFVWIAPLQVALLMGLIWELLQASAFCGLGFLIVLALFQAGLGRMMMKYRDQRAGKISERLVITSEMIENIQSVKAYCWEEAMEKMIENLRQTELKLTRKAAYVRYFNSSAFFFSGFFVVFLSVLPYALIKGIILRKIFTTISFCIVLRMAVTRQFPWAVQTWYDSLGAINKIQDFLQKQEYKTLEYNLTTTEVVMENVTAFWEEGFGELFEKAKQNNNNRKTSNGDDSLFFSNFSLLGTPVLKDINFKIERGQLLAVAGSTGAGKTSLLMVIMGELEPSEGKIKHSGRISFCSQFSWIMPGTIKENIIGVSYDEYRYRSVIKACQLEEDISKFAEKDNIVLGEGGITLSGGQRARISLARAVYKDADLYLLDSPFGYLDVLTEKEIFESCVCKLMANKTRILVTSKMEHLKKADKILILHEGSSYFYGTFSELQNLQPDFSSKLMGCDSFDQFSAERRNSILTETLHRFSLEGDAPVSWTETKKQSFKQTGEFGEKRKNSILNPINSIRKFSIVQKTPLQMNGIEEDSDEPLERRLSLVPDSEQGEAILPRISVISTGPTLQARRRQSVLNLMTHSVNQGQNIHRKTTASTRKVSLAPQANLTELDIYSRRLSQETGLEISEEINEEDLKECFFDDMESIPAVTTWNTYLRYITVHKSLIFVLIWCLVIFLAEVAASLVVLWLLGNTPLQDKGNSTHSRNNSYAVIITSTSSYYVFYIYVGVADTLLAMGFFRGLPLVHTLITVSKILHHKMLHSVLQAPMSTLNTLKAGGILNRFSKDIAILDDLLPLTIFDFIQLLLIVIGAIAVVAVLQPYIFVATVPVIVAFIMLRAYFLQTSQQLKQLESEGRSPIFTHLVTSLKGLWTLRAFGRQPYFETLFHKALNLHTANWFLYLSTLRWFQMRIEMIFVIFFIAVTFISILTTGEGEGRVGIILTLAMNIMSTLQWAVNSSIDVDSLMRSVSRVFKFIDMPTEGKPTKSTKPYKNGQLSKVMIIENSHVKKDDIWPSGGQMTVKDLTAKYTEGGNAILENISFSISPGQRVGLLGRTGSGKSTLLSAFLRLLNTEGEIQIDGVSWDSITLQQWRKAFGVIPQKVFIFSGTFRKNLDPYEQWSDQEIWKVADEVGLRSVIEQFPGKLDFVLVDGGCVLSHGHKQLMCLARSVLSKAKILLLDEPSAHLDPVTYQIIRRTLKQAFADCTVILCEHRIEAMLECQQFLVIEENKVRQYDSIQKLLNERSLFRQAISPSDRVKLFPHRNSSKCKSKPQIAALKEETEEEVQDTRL

SMILES	EC50 [1]	EC50 [2]	Maximum % activity (with co-corrector) [3]	Emax (CSE-HRP, without co-corrector)	Emax [4]	EC50 [5]	Maximum % activity (with co-corrector) [6]	EC50 [7]	Maximum % activity (with co-corrector) (with co-corrector (2 μM))	Emax (without co-corrector)
COc1nc(C(C)(C)C)ccc1CN[C@H]1[C@H](C(C)(C)C)[C@@H](C(=O)O)N(C(=O)C2CCCCC2)[C@H]1c1ccccc1C(C)C [Example I-187]						< 1 µM		< 1 µM	+++ (≥350)	> 200%
COc1cccc([C@@H]2[C@H](NCc3ccccc3OC(F)F)[C@@H](C(C)(C)C)[C@H](C(=O)O)N2C(=O)C2CCCCC2)n1 (racemic) [Example I-16]						1 to 10 µM		1 to 10 µM	+++ (≥350)	< 100%
CCOc1ccc(Br)cc1CN[C@H]1[C@H](C(C)(C)C)[C@@H](C(=O)O)N(C(=O)OC(C)C)[C@H]1c1cccnc1N1CCC1 [Example I-274]	1 to 10 µM	1 to 10 µM	+++ (≥350)	100 to 200%						
COc1ncc(C2CCCCC2)cc1CN[C@H]1[C@H](C(C)(C)C)[C@@H](C(=O)O)N(C(=O)C2CCCCC2)[C@H]1c1ccccc1 [Example I-72]						< 1 µM		< 1 µM	+++ (≥350)	> 200%
COc1ccc(C23CC(C2)C3)cc1CN[C@H]1[C@H](C(C)(C)C)[C@@H](C(=O)O)N(C(=O)OC(C)C)[C@H]1c1cccnc1N(C)C [Example 64, (2S,3S,4S,5S)-4-({[5-(bicyclo[1.1.1]pentan-1-yl)-2-methoxyphenyl]methyl}amino)-3-tert-butyl-5-[2-(dimethylamino)pyridin-3-yl]-1-{[(propan-2-yl)oxy]carbonyl}pyrrolidine-2-carboxylic acid]						1 to 10 µM		1 to 10 µM	+++ (≥350)	> 200%
CCC(C)c1cnc(OC)c(CN[C@H]2[C@H](C(C)(C)C)[C@@H](C(=O)O)N(C(=O)C3CCCCC3)[C@H]2c2ccccc2)c1 (stereo partly drawn) [Example I-70]						1 to 10 µM		< 1 µM	+++ (≥350)	> 200%
COc1ccc(C(C)(C)C)cc1CN[C@H]1[C@H](C(C)(C)C)[C@@H](C(=O)O)N(C(=O)CN2CCCCCC2)[C@H]1c1ccccc1 [Example I-100]						1 to 10 µM		1 to 10 µM	+++ (≥350)	> 200%
COc1ncc(C(F)(F)F)cc1N[C@H]1[C@H](C(C)(C)C)[C@@H](C(=O)O)N(C(=O)C2CCCCC2)[C@H]1c1ccccc1 [Example 114, (2S,3S,4S,5S)-3-tert-butyl-1-(cyclohexanecarbonyl)-4-{[2-methoxy-5-(trifluoromethyl)pyridin-3-yl]amino}-5-phenylpyrrolidine-2-carboxylic acid]						< 1 µM		< 1 µM	+++ (≥350)	< 100%
COc1ccc(C(C)(C)C)cc1CN[C@H]1[C@H](C(C)(C)C)[C@@H](C(=O)O)N(C(=O)C2CC(C)(C)OC(C)(C)C2)[C@H]1c1ccccc1 [Example 54, (2S,3S,4S,5S)-3-tert-butyl-4-{[(5-tert-butyl-2-methoxyphenyl)methyl]amino}-5-phenyl-1-(2,2,6,6-tetramethyloxane-4-carbonyl)pyrrolidine-2-carboxylic acid]						1 to 10 µM		< 1 µM	+++ (≥350)	> 200%

The next lines start with the values.

EC50 [1]	EC50 [2]	Maximum % activity (with co-corrector) [3]	Emax (CSE-HRP, without co-corrector)	Emax [4]	EC50 [5]	Maximum % activity (with co-corrector) [6]	EC50 [7]	Maximum % activity (with co-corrector) (with co-corrector (2 μM))	Emax (without co-corrector)	SMILES
1 to 10 µM	1 to 10 µM	+++ (≥350)	> 200%							COc1cc(C(F)(F)F)ccc1CN[C@H]1[C@H](C(C)(C)C)[C@@H](C(=O)O)N(C(=O)OC(C)C)[C@H]1c1ccccc1OC [II-134]
				100 to 200%	1 to 10 µM	+++ (≥350)	1 to 10 µM			COc1ccc(C(C)(C)C)cc1CN[C@H]1[C@H](C(C)(C)C)[C@@H](C(=O)O)N(C(=O)c2cc(C)n(C)n2)[C@H]1c1ccccc1 [II-445]
1 to 10 µM	< 1 µM	+++ (≥350)	> 200%							COc1ccc(Cc2ccccc2)cc1CN[C@H]1[C@H](C(C)(C)C)[C@@H](C(=O)O)N(C(=O)C2CCCCC2)[C@H]1c1ccccc1 [II-191]
				> 200%	1 to 10 µM	+++ (≥350)	< 1 µM			COc1ccc(C(C)(C)C)cc1CN[C@H]1[C@H](C(C)(C)C)[C@@H](C(=O)O)N(C(=O)C2=C(F)CCCC2)[C@H]1c1ccccc1 [II-411]
< 1 µM	< 1 µM	+++ (≥350)	< 100%							CC(C)(C)[C@@H]1[C@@H](NCc2cc(C(F)(F)F)cnc2Cl)[C@@H](c2ccccc2)N(C(=O)C2CCCCC2)[C@H]1C(=O)O (racemic) [II-15]
				< 100%	1 to 10 µM		1 to 10 µM	++ (≥150 and <350)		COc1ccc(-c2cnn(C3CC3)c2)cc1CN[C@H]1[C@H](C(C)(C)C)[C@@H](C(=O)O)N(C(=O)C2CCCCC2)[C@H]1c1ccccc1 [III-187]
1 to 10 µM	< 1 µM	+++ (≥350)	100 to 200%							COc1ncc(Br)cc1CN[C@H]1[C@H](C(C)(C)OC)[C@@H](C(=O)O)N(C(=O)C2CCCCC2)[C@H]1c1ccccc1 [II-247]
				< 100%	1 to 10 µM	++ (≥150 and <350)	1 to 10 µM			COc1cccc([C@@H]2[C@H](Nc3cc(C(F)(F)F)cc(C)n3)[C@@H](C(C)(C)C)[C@H](C(=O)O)N2C(=O)C2C3COCC32)n1 (mixture of isomers) [III-62]
				> 200%	1 to 10 µM	+++ (≥350)	1 to 10 µM			COc1ncc(-c2ccccc2F)cc1CN[C@H]1[C@H](C(C)(C)C)[C@@H](C(=O)O)N(C(=O)C2CCCCC2)[C@H]1c1cccnc1N(C)C [II-405]
1 to 10 µM	1 to 10 µM	+++ (≥350)	> 200%							COc1ccc(C(C)(C)C)cc1CN[C@H]1[C@H](C(C)(C)C)[C@@H](C(=O)O)N(C(=O)CC2(O)CCCCC2)[C@H]1c1ccccc1 [II-210]
< 1 µM	< 1 µM	+++ (≥350)	> 200%							COc1ccc(C(C)(C)C)cc1CN[C@H]1[C@H](C(C)(C)C)[C@@H](C(=O)O)N(C(=O)Cc2ccccc2Cl)[C@H]1c1ccccc1 [II-183]
1 to 10 µM	1 to 10 µM	+++ (≥350)	< 100%							Cc1ccc(C#N)c(N[C@H]2[C@H](C(C)(C)C)[C@@H](C(=O)O)N(C(=O)C3CCCCC3)[C@H]2c2ccccc2)n1 [II-146]
				> 200%	1 to 10 µM	+++ (≥350)	1 to 10 µM			C#CCOC(=O)N1[C@H](C(=O)O)[C@@H](C(C)(C)C)[C@H](NCc2cc(C(C)(C)C)ccc2OC)[C@@H]1c1ccccc1 [II-384]
				100 to 200%	1 to 10 µM		1 to 10 µM	+++ (≥350)		COc1cc(C(F)(F)F)ccc1CN[C@@H]1[C@@H](C(C)(C)C)[C@H](C(=O)O)N(C(=O)OC2CCC2)[C@@H]1c1ccccc1 (racemic) [III-114]
				100 to 200%	1 to 10 µM	+++ (≥350)	1 to 10 µM			CCn1nc(C)c(C(=O)N2[C@H](C(=O)O)[C@@H](C(C)(C)C)[C@H](NCc3cc(C(C)(C)C)ccc3OC)[C@@H]2c2ccccc2)c1C [II-362]
				100 to 200%	< 1 µM	+++ (≥350)	< 1 µM			COc1ccc(C(F)(F)F)cc1CN[C@H]1[C@H](C(C)(C)C)[C@@H](C(=O)O)N(C(=O)C(Oc2ccc(Cl)cc2)C(C)C)[C@H]1c1ccccc1 (stereo partly drawn) [II-399]
1 to 10 µM	1 to 10 µM	+++ (≥350)	> 200%							COc1ncc(C(C)C)cc1CN[C@H]1[C@H](C(C)(C)OC)[C@@H](C(=O)O)N(C(=O)C2CCCCC2)[C@H]1c1ccccc1 [II-254]
				100 to 200%	< 1 µM	+++ (≥350)	< 1 µM			COc1cnc(-c2ccc(C)cc2F)cc1CN[C@H]1[C@H](C(C)(C)C)[C@@H](C(=O)O)N(C(=O)C2CCCCC2)[C@H]1c1ccccc1 [II-416]
1 to 10 µM	1 to 10 µM	+++ (≥350)	> 200%							COc1ccc(Br)cc1CN[C@H]1[C@H](C(C)(C)C)[C@@H](C(=O)O)N(C(=O)OC(C)C)[C@H]1c1ccccc1 [II-171]
				> 200%	1 to 10 µM	+++ (≥350)	< 1 µM			COc1ccc(C(C)(C)C)cc1CN[C@H]1[C@H](C(C)(C)C)[C@@H](C(=O)O)N(C(=O)C2CC=CC2)[C@H]1c1ccccc1 [II-321]
1 to 10 µM	< 1 µM	+++ (≥350)	> 200%							COc1ccc(-c2ccoc2)cc1CN[C@H]1[C@H](C(C)(C)C)[C@@H](C(=O)O)N(C(=O)C2CCCCC2)[C@H]1c1ccccc1 [II-276]
